Results: patent publication US12201629B2 (priority 2017, dated 2025)

Test: Example 2: pharmacokinetics of oral and intravenous buprenorphine hydrochloride under naltrexone blockade
Conditions: injection, equimolar to 0.3 mg buprenorphine base, over 15 min; n = 8

CO[C@@]12CC[C@@]3(C[C@@H]1[C@](C)(O)C(C)(C)C)[C@H]1Cc4ccc(O)c5c4[C@@]3(CCN1CC1CC1)[C@H]2O5.Cl [Buprenorphine i.v., Buprenorphine HCl]
Buprenorphine Mean Cmax: 4.26 ng/mL
Buprenorphine Mean Tmax: 20.2 min
